In publication PMC7178511, “Antimicrobial Activity and DNA/BSA Binding Affinity of Polynuclear Silver(I) Complexes with 1,2-Bis(4-pyridyl)ethane/ethene as Bridging Ligands” (Bioinorganic Chemistry and Applications, 2020):
≈ marks a conversion by molar mass, not a printed value.

Key:
[1] = test system: calf thymus DNA (ctDNA); details: proven DNA intercalator; cited from earlier work
[2] = test system: Salmonella pullorum ATCC 13036; test: Broth microdilution MIC, S. pullorum; format: cell-based; details: Salmonella enterica; S. pullorum ATCC 13036; Luria-Bertani broth, 24 h, 37°C; read-out: MIC
Procedure: (§1) Minimal inhibitory concentration (MIC) values against Pseudomonas aeruginosa PA01, Staphylococcus aureus ATCC 43300, Salmonella enteritidis ATCC 13075, Salmonella pullorum ATCC 13036, Escherichia coli NCTC 9001, Listeria monocytogenes NCTC 11994, and Enterococcus faecalis ATCC 29212 were determined in Luria-Bertani broth (10.0 g/L tryptone, 10.0 g/L NaCl, 5.0 g/L yeast extract, pH 7.2) in accordance with the standard broth microdilution assay for bacteria that grow aerobically, as recommended by the CLSI (Clinical and Laboratory Standards Institute, Methods for Dilution Antimicrobial Susceptibility Tests for Bacteria That Grow Aerobically; Approved Standard—Tenth Edition M07-A10. CLSI). The highest tested concentration was 500 μg/mL, and the inocula were 1^·10^6 cfu/mL.

[3] = MTT assay on a human fibroblast cell line; format: cell-based; details: human, MRC-5 human lung fibroblast cells, MRC-5, MTT, read-out: IC50 (cytotoxic effect on MRC-5 cells)
Procedure: Antiproliferative activity was tested by 3-(4,5-dimethylthiazol-2-yl)-2,5-diphenyltetrazolium bromide (MTT) assay on a human lung fibroblast cell line (MRC-5; ATCC collection). Pregrown (24 h) cell monolayers were incubated in the media containing the tested compounds at concentrations ranging from 5 to 500 μg/mL and the cell viability was measured after 48 h. RPMI 1640 medium supplemented with 100 μg/mL streptomycin, 100 U/mL penicillin, and 10% (v/v) FBS (all from Sigma, Munich, Germany) was used for the cultivation of MRC-5 cell line. Cells were maintained as a monolayer (1^·10^4 cells per well) in RPMI 1640 and grown in a humidified atmosphere of 95% air and 5% CO2 at 37°C. The extent of MTT reduction was measured spectrophotometrically at 540 nm using Tecan Infinite 200 Pro multiplate reader (Tecan Group Ltd, Männedorf, Switzerland), and the cell survival was expressed as a percentage of the control (untreated cells). Cytotoxicity was expressed as the concentration of the compound inhibiting cell growth by 50% (IC50).

[4] = test system: Salmonella enteritidis ATCC 13075; test: Broth microdilution MIC, S. enteritidis; format: cell-based; details: Salmonella enterica; S. enteritidis ATCC 13075; Luria-Bertani broth, 24 h, 37°C; read-out: MIC
Procedure: as §1

[5] = test system: Pseudomonas aeruginosa PAO1; test: Broth microdilution MIC, P. aeruginosa; format: cell-based; details: Pseudomonas aeruginosa; P. aeruginosa PAO1; Luria-Bertani broth, 24 h, 37°C; read-out: MIC
Procedure: as §1

[6] = test system: investigated bacterial strains; test: Broth microdilution MIC, panel of bacterial strains; format: cell-based
Procedure: as §1

[7] = test system: Enterococcus faecalis ATCC 29212; test: Broth microdilution MIC, E. faecalis; format: cell-based; details: Enterococcus faecalis, ATCC29212; E. faecalis ATCC 29212; Luria-Bertani broth, 24 h, 37°C; read-out: MIC
Procedure: as §1

[8] = test system: C. krusei ATCC 6258; test: Broth microdilution MIC, C. krusei; format: cell-based, Candida krusei; details: Pichia kudriavzevii, ATCC6258; C. krusei ATCC 6258; RPMI 1640 with 2% glucose; read-out: MIC
Procedure: (§2) Stock solutions of bpa, bpe, and silver(I) complexes 1–3 were prepared fresh in DMSO (50 mg/mL) and kept at 4°C prior to use. Susceptibility testing of Candida spp. (C. albicans ATCC 10231, C. krusei ATCC 6258, C. parapsilosis ATCC 22019, and C. glabrata ATCC 2001) was performed according to CLSI broth microdilution guidelines (Clinical and Laboratory Standards Institute, Reference Method for Broth Dilution Antifungal Susceptibility Testing of Yeasts—Third Edition: Approved Standard M27-A3; Clinical and Laboratory Standards Institute, Reference Method for Broth Dilution Antifungal Susceptibility Testing of Yeasts: Fourth Informational Supplement M27-S4), in RPMI 1640 medium (Roswell Park Memorial Institute medium) containing 2% glucose (w/v). The highest tested concentration was 500 μg/mL, and the inocula were 1^·\10^5 colony forming units (cfu)/mL.

[9] = test system: C. parapsilosis ATCC 22019; test: Broth microdilution MIC, C. parapsilosis; format: cell-based, Candida parapsilosis; details: Lodderomyces parapsilosis, ATCC22019; C. parapsilosis ATCC 22019; RPMI 1640 with 2% glucose; read-out: MIC
Procedure: as §2

[10] = test system: Listeria monocytogenes NCTC 11994; test: Broth microdilution MIC, L. monocytogenes; format: cell-based; details: Listeria monocytogenes, NCTC11994; L. monocytogenes NCTC 11994; Luria-Bertani broth, 24 h, 37°C; read-out: MIC
Procedure: as §1

[11] = test system: Staphylococcus aureus ATCC 43300; test: Broth microdilution MIC, S. aureus; format: cell-based; details: Staphylococcus aureus, ATCC43300; S. aureus ATCC 43300; Luria-Bertani broth, 24 h, 37°C; read-out: MIC
Procedure: as §1

[12] = test system: C. glabrata ATCC 2001; test: Broth microdilution MIC, C. glabrata; format: cell-based, Candida glabrata; details: Nakaseomyces glabratus, ATCC2001; C. glabrata ATCC 2001; RPMI 1640 with 2% glucose; read-out: MIC
Procedure: as §2

[13] = test system: Escherichia coli NCTC 9001; test: Broth microdilution MIC, E. coli; format: cell-based; details: Escherichia coli, NCTC9001; E. coli NCTC 9001; Luria-Bertani broth, 24 h, 37°C; read-out: MIC
Procedure: as §1

[14] = test system: C. albicans ATCC 10231; test: Broth microdilution MIC, C. albicans; format: cell-based, Candida albicans; details: Candida albicans, ATCC10231; C. albicans ATCC 10231; RPMI 1640 with 2% glucose; read-out: MIC
Procedure: as §2

SMILES | Hypochromism [1] [%] | MIC [2] [µg/mL] | IC50 at 48 h [3] [µg/mL] | MIC [4] [µg/mL] | MIC [5] [µg/mL] | MIC / antibacterial activity [6] | MIC [7] [µg/mL] | MIC [8] [µg/mL] | MIC [9] [µg/mL] | MIC [10] [µg/mL] | MIC [11] [µg/mL] | MIC [12] [µg/mL] | MIC [13] [µg/mL] | MIC [14] [µg/mL]
C[n+]1c2ccccc2c(-c2c3ccccc3[n+](C)c3ccccc23)c2ccccc21 [lucigenin] | 50 |  |  |  |  |  |  |  |  |  |  |  |  | 
C(=Cc1ccncc1)c1ccncc1 [bpe, 1,2-bis(4-pyridyl)ethene, reference compound] |  | > 500 | 220 (≈ 1210 µM) | > 500 | 500 (≈ 2740 µM) | not significant | > 500 | 200 (≈ 1100 µM) | 125 (≈ 686 µM) | 100 (≈ 549 µM) | > 500 | 100 (≈ 549 µM) | 250 (≈ 1370 µM) | 200 (≈ 1100 µM)
